Consider two molecules from ChEMBL document CHEMBL4387741, “Optimization of novel reversible Bruton's tyrosine kinase inhibitors identified using Tethering-fragment-based screens” (Bioorg Med Chem, 2019).

For test [1], the target named is Homeodomain-interacting protein kinase 3 (Homo sapiens) (UniProt Q9H422). The test can be described thus: Inhibition of wild-type human partial length HIPK3 (M153 to N562 residues) expressed in mammalian expression system at 10 uM by Kinomescan method relative to control.
In test [2] the test system is Receptor-type tyrosine-protein kinase FLT3 (Homo sapiens), P36888 [D835V]. As to the kind of experiment: Inhibition of human partial length FLT3 D835V mutant (V592 to Y969 residues) expressed in bacterial expression system at 10 uM by Kinomescan method relative to control.
In test [3] the target is Ribosomal protein S6 kinase alpha-4 (Homo sapiens) (UniProt O75676). As to the kind of experiment: Inhibition of wild-type human partial length N-terminal RPS6KA4 kinase domain 1 expressed in bacterial expression system at 10 uM by Kinomescan method relative to control.
In test [4] the target is Mast/stem cell growth factor receptor Kit (Homo sapiens) (UniProt P10721). The test can be described thus: Inhibition of wild-type human partial length KIT (I571 to D952 residues) expressed in bacterial expression system at 10 uM by Kinomescan method relative to control.
In test [5] the target is Serine/threonine-protein kinase MAK (Homo sapiens) (UniProt P20794). The test can be described thus: Inhibition of wild-type human partial length MAK (M1 to P314 residues) expressed in bacterial expression system at 10 uM by Kinomescan method relative to control.
In test [6] the target is Receptor-interacting serine/threonine-protein kinase 1 (Homo sapiens) (UniProt Q13546). The test can be described thus: Inhibition of wild-type human partial length RIPK1 (M1 to K305 residues) expressed in bacterial expression system at 10 uM by Kinomescan method relative to control.
Test [7] addresses Serine/threonine-protein kinase DCLK1 (Homo sapiens) (UniProt O15075). As to the kind of experiment: Inhibition of wild-type human partial length DCAMKL1 (L270 to A662 residues) expressed in mammalian expression system at 10 uM by Kinomescan method relative to control.
In test [8] the target is Serine/threonine-protein kinase pim-1 (Homo sapiens) (UniProt P11309). The test can be described thus: Inhibition of wild-type human partial length PIM1 (A15 to K313 residues) expressed in bacterial expression system at 10 uM by Kinomescan method relative to control.
Test [9] concerns the target Mitogen-activated protein kinase 13 (Homo sapiens) (UniProt O15264). The test can be described thus: Inhibition of wild-type human full length p38-delta (M1 to L365 residues) expressed in bacterial expression system at 10 uM by Kinomescan method relative to control.
Test [10] concerns the target Rho-associated protein kinase 1 (Homo sapiens) (UniProt Q13464). As to the kind of experiment: Inhibition of wild-type human partial length ROCK1 (M1 to R415 residues) expressed in mammalian expression system at 10 uM by Kinomescan method relative to control.
Test [11] deals with Ribosomal protein S6 kinase alpha-6 (Homo sapiens) (UniProt Q9UK32). As to the kind of experiment: Inhibition of wild-type human partial length N-terminal RSK4 kinase domain 1 (M1 to E397 residues) expressed in mammalian expression system at 10 uM by Kinomescan method relative to control.
For test [12], the target named is Protein-tyrosine kinase 2-beta (Homo sapiens) (UniProt Q14289). The test can be described thus: Inhibition of wild-type human full length PYK2 (M1 to E967 residues) expressed in bacterial expression system at 10 uM by Kinomescan method relative to control.
The target in test [13] is Cyclin-G-associated kinase (Homo sapiens) (UniProt O14976). As to the kind of experiment: Inhibition of wild-type human partial length GAK (G13 to Y338 residues) expressed in bacterial expression system at 10 uM by Kinomescan method relative to control.
In test [14] the target is Beta-adrenergic receptor kinase 1 (Homo sapiens) (UniProt P25098). The test can be described thus: Inhibition of wild-type human full length GRK2 (M1 to L689 residues) expressed in mammalian expression system at 10 uM by Kinomescan method relative to control.
Test [15] deals with Phosphatidylinositol 3-kinase catalytic subunit type 3 (Homo sapiens) (UniProt Q8NEB9). The test can be described thus: Inhibition of wild-type human partial length VPS34 (S282 to H879 residues) expressed in mammalian expression system at 10 uM by Kinomescan method relative to control.
The target in test [16] is Ephrin type-A receptor 3 (Homo sapiens) (UniProt P29320). The test can be described thus: Inhibition of wild-type human partial length EPHA3 (D604 to K889 residues) expressed in bacterial expression system at 1 uM by Kinomescan method relative to control.
In test [17] the target is Calcium/calmodulin-dependent protein kinase type II subunit delta (Homo sapiens) (UniProt Q13557). As to the kind of experiment: Inhibition of wild-type human partial length CAMK2D (M1 to E329 residues) expressed in bacterial expression system at 1 uM by Kinomescan method relative to control.
The target in test [18] is Serine/threonine-protein kinase TBK1 (Homo sapiens) (UniProt Q9UHD2). As to the kind of experiment: Inhibition of wild-type human full length TBK1 (M1 to L729 residues) expressed in mammalian expression system at 1 uM by Kinomescan method relative to control.
In test [19] the target is Bone morphogenetic protein receptor type-2 (Homo sapiens) (UniProt Q13873). The test can be described thus: Inhibition of wild-type human partial length BMPR2 (R179 to Q526 residues) expressed in mammalian expression system at 1 uM by Kinomescan method relative to control.
Test [20] deals with Mast/stem cell growth factor receptor Kit (Homo sapiens), P10721 [L576P]. As to the kind of experiment: Inhibition of human partial length KIT L576P mutant (Y545 to D952 residues) expressed in bacterial expression system at 1 uM by Kinomescan method relative to control.
In test [21] the target is Serine/threonine-protein kinase VRK2 (Homo sapiens) (UniProt Q86Y07). As to the kind of experiment: Inhibition of wild-type human partial length VRK2 (M1 to T336 residues) expressed in mammalian expression system at 1 uM by Kinomescan method relative to control.
Test [22] concerns the target Tyrosine-protein kinase Srms (Homo sapiens) (UniProt Q9H3Y6). As to the kind of experiment: Inhibition of wild-type human partial length SRMS (L208 to P488 residues) expressed in mammalian expression system at 1 uM by Kinomescan method relative to control.
Test [23] addresses Serine/threonine-protein kinase Nek10 (Homo sapiens) (UniProt Q6ZWH5). The test can be described thus: Inhibition of wild-type human partial length NEK10 (L488 to R809 residues) expressed in mammalian expression system at 1 uM by Kinomescan method relative to control.
Test [24] concerns the target Protein kinase C iota type (Homo sapiens) (UniProt P41743). As to the kind of experiment: Inhibition of wild-type human partial length PRKCI (H215 to V587 residues) expressed in mammalian expression system at 1 uM by Kinomescan method relative to control.
In test [25] the target is Homeodomain-interacting protein kinase 4 (Homo sapiens) (UniProt Q8NE63). The test can be described thus: Inhibition of wild-type human partial length HIPK4 (M1 to V384 residues) expressed in bacterial expression system at 1 uM by Kinomescan method relative to control.
In test [26] the target is MAP kinase-activated protein kinase 5 (Homo sapiens) (UniProt Q8IW41). As to the kind of experiment: Inhibition of wild-type human partial length MAPKAPK5 (M1 to D322 residues) expressed in mammalian expression system at 1 uM by Kinomescan method relative to control.
Test [27] has as its target Macrophage colony-stimulating factor 1 receptor (Homo sapiens) (UniProt P07333). As to the kind of experiment: Inhibition of wild-type human partial length autoinhibited CSF1R (Y538 to S939 residues) expressed in mammalian expression system at 1 uM by Kinomescan method relative to control.

Molecules are shown by their SMILES.

Regarding `O=C(Nc1cccc([C@H]2CCCN(c3ncnc4[nH]ccc34)C2)c1)Nc1ccccc1N1CCCC1`, the inhibition – broadly, the relative decrease from the control value, in per cent – stood at 47% in [1]; 4.3% in [2]; 77% in test [3]; 0.25% in test [4]; 100% in [5]; 100% in [6]. In addition, the inhibition in test [7] amounted to 52%; in test [8] it was 84%; in test [9], 100%; in [10], 46%; in test [11] it was 34%; in [12], 96%. Also, the results for the inhibition in test [13], in test [14] and in test [15] were 24%, 98% and 52%, respectively.

As to `O=C(Nc1cccc([C@@H]2CN(c3ncnc4[nH]ccc34)CCN2CCO)c1)Nc1c(F)cccc1N1CCCC1`, the inhibition amounted to 100% in test [16]; 100% in [17]; 81% in [18]; 91% in [19]; 35% in [20]; 100% in [21]. The inhibition in test [22] turned out to be 76%; in test [23], 26%; in [24] it was 54%; in [25], 96%; in [26] it was 100%; in [27], 83%.
